Test results: US8389513B2, “2-amino-5,5-difluoro-5,6-dihydro-4H-[1,3]oxazin-4-yl)-phenyl]-amides” (Hoffmann-La Roche Inc., priority 2009, dated 2013)

Columns and labels:
BACE1 = target: T1, BACE1 (Homo sapiens, UniProt P56817); test: Cellular Aβ-lowering assay (Aβ40 ELISA); assay type: cell-based; settings: HEK293 cells stably expressing human APP695; Aβ40 in culture supernatant; read-out: BACE1 cell act. Aβ40 IC50
T1 construct: Human HEK293 cells which are stably transfected with a vector expressing a cDNA of the human APP wt gene (APP695); endogenous in cells; host or cells: HEK293 stably transfected with human APP695 wt
T1 sequence (P56817 46-501): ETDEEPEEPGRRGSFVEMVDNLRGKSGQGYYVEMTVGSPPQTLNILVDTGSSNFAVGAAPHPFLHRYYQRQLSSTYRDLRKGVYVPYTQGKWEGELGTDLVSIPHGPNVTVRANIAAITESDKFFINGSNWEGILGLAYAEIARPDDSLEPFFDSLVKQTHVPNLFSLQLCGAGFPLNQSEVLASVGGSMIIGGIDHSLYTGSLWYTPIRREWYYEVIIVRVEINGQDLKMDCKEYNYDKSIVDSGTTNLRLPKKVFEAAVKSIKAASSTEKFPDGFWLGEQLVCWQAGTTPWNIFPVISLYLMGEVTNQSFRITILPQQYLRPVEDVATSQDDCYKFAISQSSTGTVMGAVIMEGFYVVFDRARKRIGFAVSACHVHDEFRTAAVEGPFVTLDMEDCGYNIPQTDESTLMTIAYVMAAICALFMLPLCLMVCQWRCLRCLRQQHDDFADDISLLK
Experimental: Cellular Aβ-Lowering Assay:
Human HEK293 cells which are stably transfected with a vector expressing a cDNA of the human APP wt gene (APP695) were used to assess the potency of the compounds in a cellular assay. The cells were seeded in 96-well microtiter plates in cell culture medium (Iscove, plus 10% (v/v) fetal bovine serum, glutamine, penicillin/streptomycin) to about 80% confluence and the compounds were added at a 10× concentration in 1/10 volume of medium without FCS containing 8% DMSO (final concentration of DMSO was kept at 0.8% v/v). After 18-20 hrs incubation at 37° C. and 5% CO2 in a humidified incubator the culture supernatant was harvested for the determination of Aβ40 concentrations. […] Subsequently the wells of the microtiter plate were washed extensively with Tris-buffered saline containing 0.05% Tween 20 and the assay was developed with tetramethylbenzidine/H2O2 in citric acid buffer. After stopping the reaction with one volume 1 NH2SO4 the reaction was measured in an ELISA reader at 450 nm wavelength. The concentrations of Aβ in the culture supernatants were calculated from a standard curve obtained with known amounts of pure Aβ peptide.

BACE2 = target: T2, BACE2 (Rattus norvegicus, UniProt Q6IE75); test: Assay for BACE inhibition by measuring cellular TMEM27 cleavage; assay type: cell-based; settings: INS-TMEM27 cells (INS1e-derived); shed TMEM27 by ELISA; read-out: BACE2 cell act. IC50
T2 construct: endogenous cellular BACE2 in the Ins1e rat cell line; endogenous in cells; host or cells: INS-TMEM27 (INS1e-derived rat cell line with TetOn-inducible full-length hTMEM27)
T2 sequence (Q6IE75 63-514): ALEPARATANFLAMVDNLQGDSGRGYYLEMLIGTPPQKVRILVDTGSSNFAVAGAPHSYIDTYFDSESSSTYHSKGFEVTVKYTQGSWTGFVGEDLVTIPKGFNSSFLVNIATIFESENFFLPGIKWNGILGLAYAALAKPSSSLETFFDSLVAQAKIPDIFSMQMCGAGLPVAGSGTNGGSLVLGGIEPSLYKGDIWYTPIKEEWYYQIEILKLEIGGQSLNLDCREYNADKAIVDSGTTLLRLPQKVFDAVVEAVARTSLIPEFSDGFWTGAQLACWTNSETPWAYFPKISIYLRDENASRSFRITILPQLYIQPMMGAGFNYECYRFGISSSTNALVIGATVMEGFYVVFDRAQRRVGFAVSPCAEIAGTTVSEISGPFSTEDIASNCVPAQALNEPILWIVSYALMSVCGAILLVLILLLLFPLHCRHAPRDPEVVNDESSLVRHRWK
Source text: Assay for BACE Inhibition by Measuring Cellular TMEM27 Cleavage:
The assay uses the principle of inhibition of human TMEM27 cleavage by endogenous cellular BACE2 in the Ins1e rat cell line and shedding from the cell surface into the culture medium, followed by detection in an ELISA assay. Inhibition of BACE2 prevents the cleavage and shedding in a dose-dependent manner.
The stable cell line “INS-TMEM27” represents an INS1e-derived cell line with inducible expression (using the TetOn system) of full-length hTMEM27 in a doxycycline-dependent manner. The cells are cultured throughout the experiment in RPMI1640+Glutamax (Invitrogen) Penicillin/Streptomycin, 10% Fetal bovine serum, […] pyruvate, […] beta-mercatptoethanol, 100 micrograms/ml G418 and 100 microgram/ml hygromycin and are grown inadherent culture at 37° C. in a standard CO2 cell culture incubator. INS-TMEM27 cells are seeded in 96-well plates. After 2 days in culture, BACE2 inhibitor is added in a range of concentrations as required by the assay and after a further two hours, doxycycline is added to a final concentration of 500 ng/ml. The cells are incubated for a further 46 hours and the supernatant harvested for detection of shed TMEM27.
An ELISA assay (using a pair of mouse anti-human-TMEM27 antibodies, raised against the extracellular domain of TMEM27) is used for detection of TMEM27 in the culture medium. An EC50 for BACE2 inhibition is calculated using the ELISA readout for each inhibitor concentration with standard curve-fitting software such as XLFit for the Excel spreadsheet program.

| IC50 (BACE1) [nM] | IC50 (BACE2) [nM] | Compound |
| --- | --- | --- |
| 1130 | 6740 | C[C@]1(c2cc(NC(=O)c3ncc(Cl)nc3Cl)ccc2F)N=C(N)OCC1(F)F [Example 48, 3,5-Dichloro-pyrazine-2-carboxylic acid [3-((R)-2-amino-5,5-difluoro-4-methyl-5,6-dihydro-4H-[1,3]oxazin-4-yl)-4-fluoro-phenyl]-amide] |
| 86 | 1220 | C[C@]1(c2cc(NC(=O)c3cnc(C(F)(F)F)cn3)ccc2F)N=C(N)OCC1(F)F [Example 17, 5-Trifluoromethyl-pyrazine-2-carboxylic acid [3-((R)-2-amino-5,5-difluoro-4-methyl-5,6-dihydro-4H-[1,3]oxazin-4-yl)-4-fluoro-phenyl]-amide] |
| 180 | 330 | C[C@]1(c2cc(NC(=O)c3ncccc3C(F)(F)F)ccc2F)N=C(N)OCC1(F)F [Example 6, 3-Trifluoromethyl-pyridine-2-carboxylic acid [3-((R)-2-amino-5,5-difluoro-4-methyl-5,6-dihydro-4H-[1,3]oxazin-4-yl)-4-fluoro-phenyl]-amide] |
| 9 | 35 | C[C@]1(c2cccc(NC(=O)c3ccc(Cl)cn3)c2)N=C(N)OCC1(F)F [Example 52, 5-Chloro-pyridine-2-carboxylic acid [3-((R)-2-amino-5,5-difluoro-4-methyl-5,6-dihydro-4H-[1,3]oxazin-4-yl)-phenyl]-amide] |
| 87 | 52 | C[C@]1(c2cc(NC(=O)c3ncccc3F)ccc2F)N=C(N)OCC1(F)F [Example 10, 3-Fluoro-pyridine-2-carboxylic acid [3-((R)-2-amino-5,5-difluoro-4-methyl-5,6-dihydro-4H-[1,3]oxazin-4-yl)-4-fluoro-phenyl]-amide] |
| 9 | 52 | C[C@]1(c2cc(NC(=O)c3ncc(Cl)cc3F)ccc2F)N=C(N)OCC1(F)F [Example 15, 5-Chloro-3-fluoro-pyridine-2-carboxylic acid [3-((R)-2-amino-5,5-difluoro-4-methyl-5,6-dihydro-4H-[1,3]oxazin-4-yl)-4-fluoro-phenyl]-amide] |
| 43 | 97 | Cc1nc(C(=O)Nc2ccc(F)c([C@@]3(C)N=C(N)OCC3(F)F)c2)c(C)o1 [Example 59, 2,5-Dimethyl-oxazole-4-carboxylic acid [3-((R)-2-amino-5,5-difluoro-4-methyl-5,6-dihydro-4H-[1,3]oxazin-4-yl)-4-fluoro-phenyl]-amide] |
| 43 | 3580 | Cc1cnc(C(=O)Nc2ccc(F)c([C@@]3(C)N=C(N)OC(C)(C)C3(F)F)c2)cn1 [Example 34, 5-Methyl-pyrazine-2-carboxylic acid [3-((R)-2-amino-5,5-difluoro-4,6,6-trimethyl-5,6-dihydro-4H-[1,3]oxazin-4-yl)-4-fluoro-phenyl]-amide] |
| 140 | 44300 | CC1(C)OC(N)=N[C@](C)(c2cc(NC(=O)c3ccc(OCC(F)(F)F)cn3)ccc2F)C1(F)F [Example 29, 5-(2,2,2-Trifluoro-ethoxy)-pyridine-2-carboxylic acid [3-((R)-2-amino-5,5-difluoro-4,6,6-trimethyl-5,6-dihydro-4H-[1,3]oxazin-4-yl)-4-fluoro-phenyl]-amide] |
| 290 | 14500 | C[C@]1(c2cc(NC(=O)c3ccc(OCC(F)(F)C(F)(F)F)cn3)ccc2F)N=C(N)OCC1(F)F [Example 44, 5-(2,2,3,3,3-Pentafluoro-propoxy)-pyridine-2-carboxylic acid [3-((R)-2-amino-5,5-difluoro-4-methyl-5,6-dihydro-4H-[1,3]oxazin-4-yl)-4-fluoro-phenyl]-amide] |
| 110 | 113 | Cn1ccc(C(=O)Nc2ccc(F)c([C@@]3(C)N=C(N)OCC3(F)F)c2)n1 [Example 63, 1-Methyl-1H-pyrazole-3-carboxylic acid [3-((R)-2-amino-5,5-difluoro-4-methyl-5,6-dihydro-4H-[1,3]oxazin-4-yl)-4-fluoro-phenyl]-amide] |
| 29 | 2610 | CC1(C)OC(N)=N[C@](C)(c2cc(NC(=O)c3ncc(C(F)(F)F)cn3)ccc2F)C1(F)F [Example 33, 5-Trifluoromethyl-pyrimidine-2-carboxylic acid [3-((R)-2-amino-5,5-difluoro-4,6,6-trimethyl-5,6-dihydro-4H-[1,3]oxazin-4-yl)-4-fluoro-phenyl]-amide] |
| 20 | 327 | C[C@]1(c2cc(NC(=O)c3ccc(C#N)cn3)ccc2Cl)N=C(N)OCC1(F)F [Example 51, 5-Cyano-pyridine-2-carboxylic acid [3-((R)-2-amino-5,5-difluoro-4-methyl-5,6-dihydro-4H-[1,3]oxazin-4-yl)-4-chloro-phenyl]-amide] |
| 927 | 230 | C[C@]1(c2cc(NC(=O)c3nn(CC(F)F)cc3Cl)ccc2F)N=C(N)OCC1(F)F [Example 68, 4-Chloro-1-(2,2-difluoro-ethyl)-1H-pyrazole-3-carboxylic acid [3-((R)-2-amino-5,5-difluoro-4-methyl-5,6-dihydro-4H-[1,3]oxazin-4-yl)-4-fluoro-phenyl]-amide] |
| 13 | 349 | C[C@]1(c2cccc(NC(=O)c3ccc(C#N)cn3)c2)N=C(N)OCC1(F)F [Example 53, 5-Cyano-pyridine-2-carboxylic acid [3-((R)-2-amino-5,5-difluoro-4-methyl-5,6-dihydro-4H-[1,3]oxazin-4-yl)-phenyl]-amide] |
| 404 | 543 | C[C@]1(c2cc(NC(=O)c3[nH]ncc3Cl)ccc2F)N=C(N)OCC1(F)F [Example 65, 4-Chloro-2H-pyrazole-3-carboxylic acid [3-((R)-2-amino-5,5-difluoro-4-methyl-5,6-dihydro-4H-[1,3]oxazin-4-yl)-4-fluoro-phenyl]-amide] |
| 622 | 465 | Cc1cn[nH]c1C(=O)Nc1ccc(F)c([C@@]2(C)N=C(N)OCC2(F)F)c1 [Example 66, 4-Methyl-2H-pyrazole-3-carboxylic acid [3-((R)-2-amino-5,5-difluoro-4-methyl-5,6-dihydro-4H-[1,3]oxazin-4-yl)-4-fluoro-phenyl]-amide] |
| 29 | 300 | C[C@]1(c2cc(NC(=O)c3ccc(OCF)cn3)ccc2F)N=C(N)OCC1(F)F [Example 42, 5-Fluoromethoxy-pyridine-2-carboxylic acid [3-((R)-2-amino-5,5-difluoro-4-methyl-5,6-dihydro-4H-[1,3]oxazin-4-yl)-4-fluoro-phenyl]-amide] |
| – | 15 | Cn1cc(Cl)c(C(=O)Nc2ccc(F)c([C@@]3(C)N=C(N)OCC3(F)F)c2)n1 [Example 18, 4-Chloro-1-methyl-1H-pyrazole-3-carboxylic acid [3-((R)-2-amino-5,5-difluoro-4-methyl-5,6-dihydro-4H-[1,3]oxazin-4-yl)-4-fluoro-phenyl]-amide] |
| – | 24 | Cc1cc(Cl)cnc1C(=O)Nc1ccc(F)c([C@@]2(C)N=C(N)OCC2(F)F)c1 [Example 13, 5-Chloro-3-methyl-pyridine-2-carboxylic acid [3-((R)-2-amino-5,5-difluoro-4-methyl-5,6-dihydro-4H-[1,3]oxazin-4-yl)-4-fluoro-phenyl]-amide] |
